This is an account of results in patent US20050075312A1, “Antitumor inhibitors and use thereof” (priority 2003, published 2005).

The test system of one series is sarcoma 180. Nature of the series: solid tumor induced by sarcoma 180 tumor cells. Format: in vivo, ICR mice. As to conditions: for tumor weight: control 7.1±0.1; for tumor weight / tumor volume: mean±S.E.M.; for tumor volume: control 8804±465.3. The protocol: For solid tumor development, ICR mice were injected with 0.1 ml of sarcoma 180 suspensions into the right hind limbs. After 6 days of tumor transplantation, mice randomized into six groups were injected i.p. with AS (50 and 100 mg/kg) and 5-FU (25 mg/kg) once a day for 9 days. Eight days later after treatment, animals were sacrificed by cervical […], and solid tumors were removed and weighed.

Series [1] concerns sarcoma 180 ascitic tumor. The experiment in a line: survival time of mice with sarcoma 180 ascitic tumor. Format: in vivo.
Series [2] relates to Lewis lung carcinoma cells. The experiment in a line: tumor growth in Lewis lung carcinoma-bearing mice. Format: in vivo, C57BL/6 mice. As to conditions: for tumor growth inhibited (volume): vs saline.
The test system of series [3] is chick embryonic angiogenesis. The experiment in a line: chorioallantoic membrane (CAM) assay. Format: in vivo, chicken. As to conditions: for Eggs showing antiangiogenesis: avascular zone exceeded 3 mm. The protocol:
The effect of acharan sulfate on the inhibition of angiogenesis was performed using the choroioallantoic membrane (CAM) assay. These assays essentially followed previously published procedures (Tanaka et al, 1986; Oikawa et al., 1990). In brief, fertilized chicken eggs were incubated in the constant humidified breeder at 37° C. On the third day of incubation, about 2 ml of egg albumin were aspirated by an 18-gauge hypodermic needle, to detach the developing CAM from the shell. One and half days later, sample-loaded thermanox coverslips (Nunc, Naperville, Ill.) were air-dried and applied to the CAM surface for testing of angiogenesis inhibition by AS. Two days later, 1 ml of 10% fat emulsion (Intralipose) was injected into the chorioallantoic membrane and the avascular zone was observed under a dissecting microscope. Inhibition of angiogenesis was assessed when the avascular zone exceeded 3 mm. In order to abolish the possibility of contaminant in AS, the depolymerized product by heparinase II as described above was also tested for the antiangiogenic activity. The concentration of AS used in this assay was selected based on the concentration of heparin that had previously been applied in the same assay (Collen et al., 2000).
On day 4.5, CAMs were treated with different doses of AS for 2 days. The dose-response relationship for the appearance of avascular zone was determined.

Series [4] has as its system bFGF-induced angiogenesis. The experiment in a line: mouse matrigel plug assay. Format: in vivo, C57BL/6J mice. As for the experimental part:
The effect of acharan sulfate on the inhibition of angiogenesis was also evaluated in the matrigel plug assay. This assay was performed as previously described (Passaniti et al., 1992). Acharan sulfate, dissolved in water, bFGF and heparin, dissolved in 0.1% bovine serum albumen (BSA)/phosphate buffered saline (PBS) were mixed with liquid matrigel (Collaborative Biomedical Products, Bedford, Mass.) in proportions not exceeding 1% of the total volume of matrigel. A mixture of 0.5 ml matrigel with AS or vehicle was injected subcutaneously into C57BL/6J mice. After injection, the matrigel rapidly formed a plug. […] The amount of hemoglobin (Hb) inside the matrigel was measured using the Drabkin method (Drabkin and Austin, 1932) and Drabkin reagent 525 for the quantitation of blood vessel formation. The concentration of Hb was calculated based on a Hb standard measured simultaneously.
To evaluate the effect of AS on ongoing angiogenic process in the mouse matrigel plug assay matrigel, heparin (10 units/500 μl), and bFGF (100 ng/500 μl) with or without AS were injected s.c. into C57BL/6 mice. […] We next measured the hemoglobin content inside the matrigel plugs to quantify the angiogenesis. Whereas bFGF and heparin increased Hb concentration to 11.8 g/dl and the Hb concentration inside the control was 0.3 g/dl, AS decreased the heparin and bFGF-elevated Hb quantity to about 8.6 g/dl (FIG. 3). […]

Series [5] relates to calf pulmonary artery endothelial (CPAE) cells. Nature of the series: CPAE cell proliferation by MTT assay. Format: cell-based. As to conditions: for growth inhibition: 3-day treatment. As for the experimental part: The effect of acharan sulfate on in vitro cell proliferation was carried out using calf pulmonary artery endothelial (CPAE) cells as follows.
CPAE cells were seeded in a 24 well plate at a cell density of 10^5 cells/well in 90% RPMI and 10% FBS. After 24 h incubation, the cells were treated with various concentrations of AS. Three days later, new media and MTT solution were added to each well. After incubation at 37° C. for 4 h, the absorbance of treated cells at 540 nm was compared to that of control cells.

The test system of series [6] is Lewis lung carcinoma cells. Nature of the series: tumor growth in Lewis lung carcinoma-bearing mice. Format: in vivo, C57BL/6 mice. As to conditions: for tumor volume: saline 4534.4; for mean tumor weight reduction: day 21, vs saline; for tumor weight: day 21, saline 4.5±0.7. As for the experimental part: Male C57BL/6 mice were inoculated s.c. in the back with LLC cells (1×10^6/animal) on day 0. After tumor volume was at least 60-100 mm^3, AS was administered into the subcutaneous region near the tumor mass at two doses of 10 and 30 mg/kg for 15 days. The size of tumors in all groups was measured using a dial-caliper and the volume of tumors was determined using the formula width^2×length×0.52 (Voest et al., 1995; Cao et al., 1995). The effects of AS on tumor growth and host survival were also measured by evaluating tumor volumes, tumor weights and percentage increase in lifespan of tumor hosts, respectively (Oguchi et al., 1987; Kusumoto, 1991). For calculating the survival time, mice were inoculated i.p. with […] sarcoma 180 cells/mouse on day 0 and the treatment with two doses of AS (50 and 100 mg/kg, i.p.) were started 24 h after inoculation for nine consecutive days. The control group was treated with saline. Median survival time (MST) for each group (n=7) was observed and the antitumor activity of the test compounds were compared with that of control group by measuring the increase in lifespan.

The next series concerns matrix metalloprotease. Nature of the series: antiprotease activity. Format: biochemical.
In a further series the target is bFGF (Homo sapiens, UniProt P09038). To be noted: in vitro (Wang et al., 1997); cited from earlier work.
Where [7] appears, read: 10 mg/kg daily s.c., end of 15-day treatment.
[8] abbreviates: 50 mg/kg i.p. once a day for 9 days, vs control.
Setting [9] is: 50 mg/kg i.p. once a day for 9 days.

Where “and” joins values, the source holds several entries; their conditions need not be identical. Identical values can stand only once.

Sequence of bFGF (P09038 143-288, species assumed): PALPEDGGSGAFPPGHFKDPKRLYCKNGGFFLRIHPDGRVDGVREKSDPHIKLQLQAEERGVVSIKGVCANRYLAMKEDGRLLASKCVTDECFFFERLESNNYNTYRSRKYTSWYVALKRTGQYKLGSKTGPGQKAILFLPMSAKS

`O=c1[nH]cc(F)c(=O)[nH]1` [5-FU, 5-fluorouracil]: the tumor weight inhibited in the series on sarcoma 180 (25 mg/kg i.p. once a day for 9 days, vs control) is 75.1% and 55.8%. Besides, the tumor weight in the series with sarcoma 180 (25 mg/kg i.p. once a day for 9 days) was 1.8 ± 0.3 g and 3.1 ± 0.3 g. In addition, the tumor volume decreased in the series on sarcoma 180 (5-FU 25 mg/kg i.p. once a day for 9 days, vs control) came out at 82.1%. The compound also returned a tumor volume with sarcoma 180 (5-FU 25 mg/kg i.p. once a day for 9 days) of 1572±201.5 mm^3. In addition, the “median survival time (MST)” value in series [1] (25 mg/kg, control 22.4±2.2) was 42.8 ± 4.2 days.
On to `COc1cccc2c1C(=O)c1c(O)c3c(c(O)c1C2=O)C[C@@](O)(C(=O)CO)C[C@@H]3O[C@H]1C[C@H](N)[C@H](O)[C@H](C)O1` [Doxorubicin], for which the “loss of weight of treated mice” value in series [2] (10 mg/kg i.v. every five day, compared with control mice) is recorded as “marked”. The compound also gave a tumor weight reduction in series [2] (10 mg/kg i.v. every five day, day 21, vs saline) of 68.0%. This compound had a tumor weight in series [2] (10 mg/kg i.v. every five day, day 21, saline 4.5±0.7) of 1.6 ± 0.2 g. Further, in series [2] (10 mg/kg i.v. every five day, over the treatment), the injection area entry was “significantly damaged”. Also, the “tumor growth inhibited (volume)” value in [2] (10 mg/kg i.v. every five day) is recorded as 62.0%. The compound also displayed a tumor volume in series [2] (10 mg/kg i.v. every five day, saline 4534.4) of 1721.6 mm^3.
In the case of `CC1=C(/C=C/C(C)=C/C=C/C(C)=C/C(=O)O)C(C)(C)CCC1` [Retinoic acid, all-trans-retinoic acid, reference compound], the “% inhibition” value in [3] (1 μg/egg) turned out to be 80%. In addition, the Eggs showing antiangiogenesis in series [3] (1 μg/egg, 25 eggs tested) stood at 20.
For Acharan sulfate [AS], the entries for the “% inhibition” value in series [3] (5 μg/egg) and in series [3] (10 μg/egg) were 48.3% and 55.6%, respectively. The Eggs showing antiangiogenesis stood at 14 in series [3] (5 μg/egg, 29 eggs tested) and 15 in [3] (10 μg/egg, 27 eggs tested). Also, in series [4] (fifty micrograms of AS in combination with bFGF and heparin), the “vessel induction in matrigel” value was “slightly prevented the vessel induction”. Besides, the “Hb concentration inside the matrigel plug” value in [4] (fifty micrograms of AS with bFGF and heparin, s.c., seven days, bFGF and heparin alone 11.8, control 0.3) is recorded as “about 8.6 g/dl”. For the same compound, the figures for the growth inhibition in [5] (1 μg/ml) and in series [5] (10 μg/ml) were 15.2% and 24.9%, respectively. Also, the “cytotoxic effect on CPAE cell viability” value in series [5] (increasing concentrations, data not shown) is listed as “no cytotoxic effect”. Moreover, the tumor volume in series [6] (setting [7]) was 3049.2 mm^3; in series [6] (30 mg/kg daily s.c., end of 15-day treatment) it was 2809.3 mm^3; in the series with sarcoma 180 (setting [9]) it was 4799±345.2 mm^3. The results for the “mean tumor weight reduction” value in [6] (10 mg/kg s.c.) and in series [6] (30 mg/kg s.c.) were 37.8% and 48.9%, respectively. Moreover, the values for the tumor weight (in series [6] (10 mg/kg s.c.); in series [6] (30 mg/kg s.c.); with sarcoma 180 (setting [9])) were 2.8 ± 0.2 g, 2.3 ± 0.2 g and 4.3 ± 0.1 g, respectively. In addition, the “tumor growth inhibited (volume)” value in [6] (30 mg/kg daily s.c., end of 15-day treatment, vs saline) turned out to be 38.1%; in series [2] (setting [7]), 32.8%. Further, the “body weight of mice over the course of treatment” value in [6] (10 and 30 mg/kg s.c., 15 days) was “did not lose weight”. The same compound showed a tumor volume inhibited with sarcoma 180 (setting [8]) of 45.0%. Moreover, the tumor weight inhibited with sarcoma 180 (setting [8]) was determined as 39.6%. In addition, in series [1] (30 mg/kg/day for 9 consecutive days), the “lifespan increased against the control group” value came to 1.5 fold. The median survival time turned out to be 34.3 ± 2.6 days in [1] (30 mg/kg/day for 9 consecutive days, control 22.4±2.2) and 40.6 ± 3.1 days in [1] (50 mg/kg/day for 9 consecutive days, control 22.4±2.2). The “lifespan prolonged against the control group” value in [1] (50 mg/kg/day for 9 consecutive days) worked out at 1.8 fold. In addition, the antiprotease activity entry in the series on matrix metalloprotease was “no detectable antiprotease activity”. Moreover, the “effect on heparin's bFGF mitogenicity” value on bFGF is “interfered with heparin's bFGF mitogenicity in vitro”.
